This note sets out measurements from ChEMBL document CHEMBL3272248, “beta-Adrenergic blocking agents. 18. 1-(Aryloxy)-3-(arylthioalkylamino)propan-2-ols and 1-substituted alkylthioamino-3-(aryloxy)propan-2-ols” (1978).

Activity calls are given as the source filed them. The calls are words filed in the database; no cut-off is given here.

Assay [1] relates to Felis catus. The experiment in a line: In vivo inhibition of beta-1 adrenergic receptor in iv dosed cat assessed as inhibition of isoproterenol-induced trachycardia after 30 mins. The settings on record: 0.5 h. Format: functional.
The test system of assay [2] is Felis catus. The experiment in a line: In vivo inhibition of beta-2 adrenergic receptor in iv dosed cat assessed as inhibition of isoproterenol-induced vasodepressor response after 30 mins. In kind it is functional.
The test system of assay [3] is Felis catus. The experiment in a line: In vivo inhibition of beta-1 adrenergic receptor in cat assessed as inhibition of isoproterenol-induced trachycardia at 200 ug/kg/min, iv after 30 mins. Format: functional, organism-based.

For the compound `Cc1ccc(SCCCNCC(O)COc2ccccc2)cc1.Cl` (stereo unspecified), the ED50 in assay [1] was 1.26 mg/kg. Further, the “inhibition (INH)” value in assay [2] is 11%.

As for `Cc1ccccc1OCC(O)CNCCSc1ccccc1` (stereo unspecified), the ED50 in assay [1] turned out to be 1.55 mg/kg. In addition, the “inhibition (INH)” value in assay [2] is given as 53%.

Take `CC(C)(C[S+]([O-])c1ccccc1)NCC(O)COc1ccccc1.O=C(O)C(=O)O` (stereo unspecified): the ED50 in assay [1] is 0.185 mg/kg. The “inhibition (INH)” value in assay [2] is listed as 84%.

Take `O=C(O)C(=O)O.O=[N+]([O-])c1ccccc1OCC(O)CNCCSC1CCCCC1` (stereo unspecified): the ED50 in assay [1] stood at 0.427 mg/kg. For the same compound, the “inhibition (INH)” value in assay [2] came out at 37%.

`CCSCCCNCC(O)COc1ccccc1C#N.O=C(O)C(=O)O` (stereo unspecified): in assay [1], the ED50 turned out to be 0.135 mg/kg. Besides, the “inhibition (INH)” value in assay [2] is given as 0%.

Take `O=[N+]([O-])c1ccccc1OCC(O)CNCCCSC1CCCCC1` (stereo unspecified): the inhibition entry in assay [3] is “inactive”.

With `OC(CNCCSc1ccc(Cl)cc1)COc1ccccc1` (stereo unspecified), the inhibition entry in assay [3] was “inactive”.

Take `Cc1ccccc1OCC(O)CNCC[S+]([O-])c1ccccc1.O=C(O)C(=O)O` (stereo unspecified): in assay [1], the ED50 was found to be 0.799 mg/kg. Also, the “inhibition (INH)” value in assay [2] turned out to be 54%.

In the case of `CC(C)SCCCNCC(O)COc1ccccc1.O=C(O)C(=O)O` (stereo unspecified), the ED50 in assay [1] was 0.333 mg/kg. Also, the “inhibition (INH)” value in assay [2] amounted to 0%.

`CCSCCCNCC(O)COc1ccccc1[N+](=O)[O-].O=C(O)C(=O)O` (stereo unspecified): in assay [1], the ED50 worked out at 0.13 mg/kg. The “inhibition (INH)” value in assay [2] is given as 12%.

With `O=C(O)C(=O)O.[O-][S+](CCNCC(O)COc1ccccc1)Cc1ccccc1` (stereo unspecified), the ED50 in assay [1] was determined as 0.156 mg/kg. Besides, the “inhibition (INH)” value in assay [2] is 20%.

Turning to `CCSCCCNCC(O)COc1ccccc1Cl` (stereo unspecified), the ED50 in assay [1] stood at 0.269 mg/kg. Also, the “inhibition (INH)” value in assay [2] is reported as 52%.

Take `Cc1ccc(SCCCNCC(O)COc2ccccc2[N+](=O)[O-])cc1` (stereo unspecified): in assay [3], the inhibition result was “inactive”.

As to `CCSCCNCC(O)COc1ccccc1[N+](=O)[O-]` (stereo unspecified), the inhibition result in assay [3] was “inactive”.

`CC(CNCC(O)COc1ccccc1)Sc1ccccc1.O=C(O)C(=O)O` (stereo unspecified): the ED50 in assay [1] was 0.559 mg/kg. Also, the “inhibition (INH)” value in assay [2] came out at 18%.

For `Cc1ccccc1OCC(O)CNCCOc1ccc(C(N)=O)cc1` (stereo unspecified) [TOLAMOLOL], the “inhibition (INH)” value in assay [2] was determined as 81%.

Turning to `N#Cc1ccccc1OCC(O)CNCCSc1ccccc1` (stereo unspecified), the inhibition entry in assay [3] was “inactive”.

`CCC(C)(C)CSCCCNCC(O)COc1ccccc1.O=C(O)C(=O)O` (stereo unspecified): in assay [1], the ED50 stood at 0.083 mg/kg. For the same compound, the “inhibition (INH)” value in assay [2] worked out at 0%.

`CCSCCCNCC(O)COc1ccccc1Br.O=C(O)C(=O)O` (stereo unspecified): the ED50 in assay [1] was found to be 0.212 mg/kg. Besides, the “inhibition (INH)” value in assay [2] is listed as 0%.

`CC(CSc1ccccc1)NCC(O)COc1ccccc1.O=C(O)C(=O)O` (stereo unspecified): in assay [1], the median effective dose (ED50) was found to be 0.016 mg/kg. In addition, the “inhibition (INH)” value in assay [2] came out at 0%.

In the case of `O=C(O)C(=O)O.OC(CNCCSc1ccccc1)COc1ccccc1Cl` (stereo unspecified), in assay [1], the median effective dose (ED50) was 1.46 mg/kg. The “inhibition (INH)” value in assay [2] is 0%.

As for `CCSCCCNCC(O)COc1ccc([N+](=O)[O-])cc1` (stereo unspecified), the inhibition result in assay [3] was “inactive”.

On to `CCSCCCNCC(O)COc1ccc(CC(N)=O)cc1` (stereo unspecified), for which the inhibition result in assay [3] was “inactive”.

Turning to `O=C(O)C(=O)O.OC(CNCCCSC1CCCCC1)COc1ccccc1` (stereo unspecified), in assay [1], the ED50 amounted to 0.781 mg/kg. In addition, in assay [2], the “inhibition (INH)” value is on record as 37%.

Consider `Cc1ccc([S+]([O-])CCNCC(O)COc2ccccc2)cc1` (stereo unspecified), for which the ED50 in assay [1] was 0.121 mg/kg. In addition, the “inhibition (INH)” value in assay [2] is listed as 13%.

For the compound `O=[N+]([O-])c1ccccc1OCC(O)CNCCC[S+]([O-])C1CCCCC1` (stereo unspecified), the inhibition entry in assay [3] was “inactive”.

As for `Cl.OC(CNCCCSc1ccccc1)COc1ccccc1` (stereo unspecified), the ED50 in assay [1] was determined as 0.415 mg/kg.

With `COc1ccc(OCC(O)CNCCSc2ccccc2)cc1` (stereo unspecified), the inhibition entry in assay [3] was “inactive”.

On to `Cc1ccc(SCCNCC(O)COc2ccccc2)cc1` (stereo unspecified), for which the ED50 in assay [1] stood at 0.289 mg/kg. Besides, in assay [2], the “inhibition (INH)” value was found to be 43%.

Consider `CC(CSc1ccccc1)NCC(O)COc1ccccc1Cl.O=C(O)C(=O)O` (stereo unspecified), for which the ED50 in assay [1] worked out at 0.058 mg/kg. Also, the “inhibition (INH)” value in assay [2] is listed as 60%.

Consider `Cc1cccc(OCC(O)CNCCSc2ccccc2)c1` (stereo unspecified), for which the inhibition entry in assay [3] is “inactive”.

For `CCSCCCNCC(O)COc1ccc(OC)cc1` (stereo unspecified), the inhibition result in assay [3] was “inactive”.

Consider `CC(C)(CSc1ccccc1)NCC(O)COc1ccccc1.O=C(O)C(=O)O` (stereo unspecified), for which the ED50 in assay [1] is 0.065 mg/kg. For the same compound, the “inhibition (INH)” value in assay [2] stood at 40%.

As to `[O-][S+](CCNCC(O)COc1ccccc1)c1ccccc1` (stereo unspecified), the ED50 in assay [1] came to 0.044 mg/kg. The “inhibition (INH)” value in assay [2] is given as 0%.

On to `O=[N+]([O-])c1ccccc1OCC(O)CNCCSCc1ccccc1` (stereo unspecified), for which the ED50 in assay [1] came to 0.946 mg/kg. Also, the “inhibition (INH)” value in assay [2] amounted to 0%.

Take `CC(NCC(O)COc1ccccc1)C(C)Sc1ccccc1.O=C(O)C(=O)O` (stereo unspecified): in assay [1], the median effective dose (ED50) amounted to 0.195 mg/kg. In addition, the “inhibition (INH)” value in assay [2] turned out to be 32%.

In the case of `Cl.OC(CNCCSC1CCCCC1)COc1ccccc1` (stereo unspecified), in assay [1], the median effective dose (ED50) was found to be 0.162 mg/kg. Besides, the “inhibition (INH)” value in assay [2] worked out at 0%.

Consider `CCCc1ccccc1OCC(O)CNCCCSCC` (stereo unspecified), for which the inhibition result in assay [3] is “inactive”.

Take `Cc1ccccc1OCC(O)CNCCSCc1ccccc1` (stereo unspecified): the inhibition result in assay [3] is “inactive”.

For the compound `C=CCc1ccccc1OCC(O)CNCCCSCC.O=C(O)C(=O)O` (stereo unspecified), the ED50 in assay [1] came to 0.72 mg/kg. In assay [2], the “inhibition (INH)” value is recorded as 65%.

In the case of `O=C(O)C(=O)O.OC(CNCCSCc1ccccc1)COc1ccccc1` (stereo unspecified), the ED50 in assay [1] came out at 0.207 mg/kg.

For the compound `Cc1ccccc1OCC(O)CNCCCSc1ccccc1` (stereo unspecified), the inhibition entry in assay [3] is “inactive”.

As to `CCSCCCNCC(O)COc1ccc(NC(C)=O)cc1` (stereo unspecified), the inhibition result in assay [3] was “inactive”.

In the case of `O=S(=O)(CCNCC(O)COc1ccccc1)c1ccccc1` (stereo unspecified), the ED50 in assay [1] came out at 1.33 mg/kg. In addition, the “inhibition (INH)” value in assay [2] worked out at 53%.

`[O-][S+](CCNCC(O)COc1ccccc1)c1ccc(Cl)cc1` (stereo unspecified): the ED50 in assay [1] stood at 0.08 mg/kg. Moreover, the “inhibition (INH)” value in assay [2] worked out at 0%.

Turning to `CCSCCCNCC(O)COc1ccccc1OC.O=C(O)C(=O)O` (stereo unspecified), the ED50 in assay [1] was 0.285 mg/kg. The “inhibition (INH)” value in assay [2] was determined as 70%.

For `OC(CNCCSc1ccccc1)COc1ccccc1` (stereo unspecified), the ED50 in assay [1] was determined as 0.138 mg/kg. The “inhibition (INH)” value in assay [2] amounted to 13%.

For the compound `CCSCCNCC(O)COc1ccccc1C#N.O=C(O)C(=O)O` (stereo unspecified), in assay [1], the ED50 stood at 0.2 mg/kg.

Turning to `CC[S+]([O-])CCNCC(O)COc1ccccc1.O=C(O)C(=O)O` (stereo unspecified), in assay [1], the median effective dose (ED50) amounted to 0.195 mg/kg. The “inhibition (INH)” value in assay [2] turned out to be 10%.

Take `COc1ccccc1OCC(O)CNCCSc1ccccc1` (stereo unspecified): the inhibition entry in assay [3] was “inactive”.

In the case of `CCSCCNCC(O)COc1ccccc1.Cl` (stereo unspecified), the 50% effective dose (ED50) in assay [1] is 0.332 mg/kg. Moreover, the “inhibition (INH)” value in assay [2] turned out to be 0%.

With `COc1ccccc1SCCNCC(O)COc1ccccc1.O=C(O)C(=O)O` (stereo unspecified), the ED50 in assay [1] was determined as 0.482 mg/kg. Further, the “inhibition (INH)” value in assay [2] came out at 24%.

For `CCSCCCNCC(O)COc1ccccc1.O=C(O)C(=O)O` (stereo unspecified), the ED50 in assay [1] is 0.838 mg/kg. Moreover, in assay [2], the “inhibition (INH)” value was 14%.

For the compound `OC(CNCCSCc1ccccc1)COc1ccccc1Cl` (stereo unspecified), the inhibition result in assay [3] was “inactive”.

As to `O=C(O)C(=O)O.O=[N+]([O-])c1ccccc1OCC(O)CNCCCS(=O)(=O)C1CCCCC1` (stereo unspecified), the ED50 in assay [1] amounted to 1.46 mg/kg. The “inhibition (INH)” value in assay [2] is 75%.

`O=C(O)C(=O)O.[O-][S+](CCCNCC(O)COc1ccccc1)C1CCCCC1` (stereo unspecified): the ED50 in assay [1] amounted to 0.162 mg/kg. Moreover, the “inhibition (INH)” value in assay [2] was determined as 68%.

By ED50 is commonly meant the midpoint of the dose-response relation.
